Test results as given in paper PMC3598906 (2013).

Tests used:
Htel (DNA, G4) TTAGGG [1] = experiment: 1H NMR titration and NOESY; conditions: 150 mM KCl, 25 mM KH2PO4, 1 mM EDTA, pH 6.7, 25 °C
ds6 (DNA, duplex) CGATCG [2] = experiment: fluorescence titration; conditions: 185 mM KCl, 185 mM NaCl; pH 7, 25 °C; up to 25 µM DNA, 1 µM ligand; n.d., no change in fluorescence
Htel (DNA, G4) TTAGGG [3] = experiment: imino proton NMR melting; conditions: 150 mM KCl, 25 mM KH2PO4; 1 mM EDTA, pH 6.7; imino signals lost at 45-55 °C free, still observed at 55 °C bound
[4] = tested on: ds26 (DNA, duplex) CAATCGGATCGAATTCGATCCGATTG; experiment: competitive dialysis; conditions: potassium phosphate buffer, 50 µM DNA, 1 µM ligand, 24 h, room temperature
[5] = tested on: HT24 (DNA, G4) TAGGGTTAGGGTTAGGGTTAGGGT; experiment: competitive dialysis; conditions: potassium phosphate buffer; 50 µM DNA, 1 µM ligand, 24 h, room temperature
Htel (DNA, G4) TTAGGG [6] = experiment: fluorescence titration, Equispec fit; conditions: 185 mM KCl, 185 mM NaCl; 6 mM Na2HPO4, 2 mM NaH2PO4, 1 mM EDTA, pH 7, 25 °C; macroscopic; 1 µM ligand
[7] = tested on: cmyc (DNA, G4) GGGGAGGGTGGGGAGGGTGGGGAAGGTGGGG; experiment: competitive dialysis; conditions: potassium phosphate buffer; 50 µM DNA, 1 µM ligand, 24 h, room temperature
[8] = tested on: 24bcl (DNA, G4) CGGGCGCGGGAGGAAGGGGGCGGG; experiment: competitive dialysis; conditions: potassium phosphate buffer; 50 µM DNA, 1 µM ligand, 24 h, room temperature
ds6 (DNA, duplex) CGATCG [9] = experiment: 1H and 31P NMR titration; conditions: 70 mM KCl, 10 mM KH2PO4; 0.2 mM EDTA, pH 7.0; [drug]/[DNA] up to 3
[10] = tested on: ds8 (DNA, duplex) GCGATCGC; experiment: 1H NMR titration; conditions: 70 mM KCl, 10 mM KH2PO4; 0.2 mM EDTA, pH 7.0; line broadening only, no intermolecular NOE; ions stated for other duplexes

For `CN1CCN(C(=O)c2ccc3c(NC4CCN(Cc5ccccc5)CC4)c4ccccc4nc3c2)CC1`, the binding (Htel (DNA, G4) TTAGGG [1]; site at T2, A3, G4) was “yes”, the binding (ds6 (DNA, duplex) CGATCG [2]) was “no” and the binding (Htel (DNA, G4) TTAGGG [3]) was “yes”. For the same molecule, the binding [4] was “no”, the binding [5] was “yes” and the “Logarithm of the binding constants” value (Htel (DNA, G4) TTAGGG [6]) was 4.4 ± 0.1 log (M-1). The binding [7] was “yes” and the binding [8] was “yes”.

`CN1CCN(C(=O)c2cccc3c(NCCc4c[nH]c5ccccc45)c4ccccc4nc23)CC1` was tested, and the binding (Htel (DNA, G4) TTAGGG [1]; intercalates between A3 and G4) was “yes”, the binding (ds6 (DNA, duplex) CGATCG [2]) was “no” and the binding (Htel (DNA, G4) TTAGGG [3]) was “yes”. For the same molecule, the binding ([4]; NMR suggests outside binding) was “yes”, the binding (ds6 (DNA, duplex) CGATCG [9]) was “no” and the binding [5] was “yes”. For the same molecule, the “Logarithm of the binding constants” value (Htel (DNA, G4) TTAGGG [6]) was 4.9 ± 0.1 log (M-1), the binding [10] was “weak” and the binding [7] was “yes”. The binding [8] was “yes”.
